# According to the supplement of paper PMC4932681:
# How the values were obtained:
# [1] = test system: ZR-75-1 Tam2; test: drug sensitivity score (DSS) (DSS (dimensionless)); higher = more sensitive; extreme values may be limits of the assay; settings: 4-OH-tamoxifen in medium 1 µM; 72 h
# Summary of the method: (§1)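 Breast cancer cell lines and their resistant derivatives were seeded into 384-well plates holding FO2Baq library drugs at five concentrations spanning a 10 000-fold range. Resistant lines were in medium with 1 μM of the selecting drug. Cells were incubated 72 h at 37 °C, and CellTiter-Glo viability was read on a PHERAstar and normalised to vehicle-only and positive controls. Drug sensitivity score, relative IC50 (curve midpoint) and top-dose inhibition came from logistic dose–response fits (Breeze pipeline).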
# [2] = test system: T-47D; test: as above; settings: 72 h
# Summary of the method: as §1
# [3] = test system: BT-474 Tam2; test: as above; settings: 4-OH-tamoxifen in medium 1 µM; 72 h
# Summary of the method: as §1
# [4] = test system: MCF-7 Tam1; test: as above; settings: 4-OH-tamoxifen in medium 1 µM; 72 h
# Summary of the method: as §1
# [5] = test system: T-47D Tam2; test: as above; settings: 4-OH-tamoxifen in medium 1 µM; 72 h
# Summary of the method: as §1
# [6] = test system: BT-474; test: as above; settings: 72 h
# Summary of the method: as §1
# [7] = test system: ZR-75-1 Tam1; test: as above; settings: 4-OH-tamoxifen in medium 1 µM; 72 h
# Summary of the method: as §1
# [8] = test system: BT-474 Tam1; test: as above; settings: 4-OH-tamoxifen in medium 1 µM; 72 h
# Summary of the method: as §1
# [9] = test system: T-47D Tam1; test: as above; settings: 4-OH-tamoxifen in medium 1 µM; 72 h
# Summary of the method: as §1
# [10] = test system: MCF-7; test: as above; settings: 72 h
# Summary of the method: as §1
# [11] = test system: ZR-75-1; test: as above; settings: 72 h
# Summary of the method: as §1
# [12] = test system: ZR-75-1 Tam2; test: relative IC50 (midpoint of fitted logistic curve, plateau may be below 50% inhibition; CellTiter-Glo viability); higher = less potent; settings: 4-OH-tamoxifen in medium 1 µM; 72 h
# Summary of the method: as §1
# [13] = test system: T-47D; test: as above; settings: 72 h
# Summary of the method: as §1
# [14] = test system: BT-474 Tam2; test: as above; settings: 4-OH-tamoxifen in medium 1 µM; 72 h
# Summary of the method: as §1
# [15] = test system: MCF-7 Tam1; test: as above; settings: 4-OH-tamoxifen in medium 1 µM; 72 h
# Summary of the method: as §1
# [16] = test system: T-47D Tam2; test: as above; settings: 4-OH-tamoxifen in medium 1 µM; 72 h
# Summary of the method: as §1
# [17] = test system: BT-474; test: as above; settings: 72 h
# Summary of the method: as §1
# [18] = test system: ZR-75-1 Tam1; test: as above; settings: 4-OH-tamoxifen in medium 1 µM; 72 h
# Summary of the method: as §1
# [19] = test system: BT-474 Tam1; test: as above; settings: 4-OH-tamoxifen in medium 1 µM; 72 h
# Summary of the method: as §1
# [20] = test system: T-47D Tam1; test: as above; settings: 4-OH-tamoxifen in medium 1 µM; 72 h
# Summary of the method: as §1
# [21] = test system: MCF-7; test: as above; settings: 72 h
# Summary of the method: as §1
# [22] = test system: ZR-75-1; test: as above; settings: 72 h
# Summary of the method: as §1
Structure (SMILES),drug sensitivity score [1],drug sensitivity score ([2]; 4-OH-tamoxifen in medium 0 µM),drug sensitivity score ([2]; 4-OH-tamoxifen in medium 1 µM),drug sensitivity score [3],drug sensitivity score [4],drug sensitivity score [5],drug sensitivity score ([6]; 4-OH-tamoxifen in medium 0 µM),drug sensitivity score ([6]; 4-OH-tamoxifen in medium 1 µM),drug sensitivity score [7],drug sensitivity score [8],drug sensitivity score [9],drug sensitivity score ([10]; 4-OH-tamoxifen in medium 0 µM),drug sensitivity score ([10]; 4-OH-tamoxifen in medium 1 µM),drug sensitivity score ([11]; 4-OH-tamoxifen in medium 0 µM),drug sensitivity score ([11]; 4-OH-tamoxifen in medium 1 µM),relative IC50 [12],relative IC50 ([13]; 4-OH-tamoxifen in medium 0 µM),relative IC50 ([13]; 4-OH-tamoxifen in medium 1 µM),relative IC50 [14],relative IC50 [15],relative IC50 [16],relative IC50 ([17]; 4-OH-tamoxifen in medium 0 µM),relative IC50 ([17]; 4-OH-tamoxifen in medium 1 µM),relative IC50 [18],relative IC50 [19],relative IC50 [20],relative IC50 ([21]; 4-OH-tamoxifen in medium 0 µM),relative IC50 ([21]; 4-OH-tamoxifen in medium 1 µM),relative IC50 ([22]; 4-OH-tamoxifen in medium 0 µM),relative IC50 ([22]; 4-OH-tamoxifen in medium 1 µM)
O=C(O)CCCc1ccc(N(CCCl)CCCl)cc1 [Chlorambucil],0,0,0,0,0,0,0,0,0,0,0,0,0,0,0,> 10 µM,> 10 µM,> 10 µM,> 10 µM,> 10 µM,> 10 µM,> 10 µM,> 10 µM,> 10 µM,> 10 µM,> 10 µM,> 10 µM,> 10 µM,> 10 µM,> 10 µM
N.N.[Cl][Pt][Cl] [Cisplatin],0,0,0,0,0,0,0,0,0,0,0,0,0,0,0,> 10 µM,> 10 µM,> 10 µM,> 10 µM,> 10 µM,> 10 µM,> 10 µM,> 10 µM,> 10 µM,> 10 µM,> 10 µM,> 10 µM,> 10 µM,> 10 µM,> 10 µM
C[C@@H](Oc1cc(-c2cnn(C3CCNCC3)c2)cnc1N)c1c(Cl)ccc(F)c1Cl [Crizotinib],0,0,0,0,0,0,0,0,0,0,0,0,0,0,0,> 1 µM,> 1 µM,> 1 µM,> 1 µM,> 1 µM,> 1 µM,> 1 µM,> 1 µM,> 1 µM,> 1 µM,> 1 µM,> 1 µM,> 1 µM,> 1 µM,> 1 µM
CC1=C2C[C@H]3[C@@H](CC=C4C[C@@H](O)CC[C@@]43C)[C@@H]2CC[C@]12O[C@@H]1C[C@H](C)CN[C@H]1[C@H]2C [Cyclopamine],0,0,0,0,0,0,0,0,0,0,0,0,0,0,0,> 10 µM,> 10 µM,> 10 µM,> 10 µM,> 10 µM,> 10 µM,> 10 µM,> 10 µM,> 10 µM,> 10 µM,> 10 µM,> 10 µM,> 10 µM,> 10 µM,> 10 µM
CN(C)/N=N/c1[nH]cnc1C(N)=O [Dacarbazine],0,0,0,0,0,0,0,0,0,0,0,0,0.0214,0,0,> 10 µM,> 10 µM,> 10 µM,> 10 µM,> 10 µM,> 10 µM,> 10 µM,> 10 µM,> 10 µM,> 10 µM,> 10 µM,> 10 µM,–,> 10 µM,> 10 µM
Cc1c2oc3c(C)ccc(C(=O)N[C@@H]4C(=O)N[C@H](C(C)C)C(=O)N5CCC[C@H]5C(=O)N(C)CC(=O)N(C)[C@@H](C(C)C)C(=O)O[C@@H]4C)c3nc-2c(C(=O)N[C@@H]2C(=O)N[C@H](C(C)C)C(=O)N3CCC[C@H]3C(=O)N(C)CC(=O)N(C)[C@@H](C(C)C)C(=O)O[C@@H]2C)c(N)c1=O [Dactinomycin],23.2,16.8,12,16.1,16.1,16,11.2,17.9,19.8,20.1,18.2,20.2,20,20.5,17.4,0.00833 µM,0.00779 µM,0.00851 µM,0.0352 µM,0.0241 µM,0.00876 µM,0.0227 µM,0.0275 µM,0.00956 µM,0.0189 µM,0.00817 µM,0.0114 µM,0.0135 µM,0.0045 µM,0.00903 µM
COc1cccc2c1C(=O)c1c(O)c3c(c(O)c1C2=O)C[C@@](O)(C(C)=O)C[C@@H]3O[C@H]1C[C@H](N)[C@H](O)[C@H](C)O1 [Daunorubicin],6.6,7.41,3.69,1.15,1.34,4.19,2.33,4.51,5.81,3.18,6.95,6.15,7.3,6.15,5.38,0.15 µM,0.134 µM,0.35 µM,0.393 µM,0.341 µM,0.282 µM,0.385 µM,0.375 µM,0.164 µM,0.398 µM,0.133 µM,0.208 µM,0.189 µM,0.138 µM,0.124 µM
Nc1ncn([C@H]2C[C@H](O)[C@@H](CO)O2)c(=O)n1 [Decitabine (Dacogen)],0,0,0,0,0,0,0,0,0,0,0,1.25,0,0,0,> 10 µM,> 10 µM,> 10 µM,> 10 µM,> 10 µM,> 10 µM,> 10 µM,> 10 µM,> 10 µM,> 10 µM,> 10 µM,–,> 10 µM,> 10 µM,> 10 µM
CN1CCN(c2ccc3nc(-c4c(N)c5c(F)cccc5[nH]c4=O)[nH]c3c2)CC1 [Dovitinib (CHIR-258)],0,0,0,0,0,0,0,0,0,0,0,0,0,0,0,> 10 µM,> 10 µM,> 10 µM,> 10 µM,> 10 µM,> 10 µM,> 10 µM,> 10 µM,> 10 µM,> 10 µM,> 10 µM,> 10 µM,> 10 µM,> 10 µM,> 10 µM
Cn1cc(C2=C(c3cn(C4CCN(Cc5ccccn5)CC4)c4ccccc34)C(=O)NC2=O)c2ccccc21 [Enzastaurin],0,0,0,0,0,0,0,0,0,0,0,0,0,0,0,> 10 µM,> 10 µM,> 10 µM,> 10 µM,> 10 µM,> 10 µM,> 10 µM,> 10 µM,> 10 µM,> 10 µM,> 10 µM,> 10 µM,> 10 µM,> 10 µM,> 10 µM
C[C@]12CC[C@@H]3c4ccc(OC(=O)N(CCCl)CCCl)cc4CC[C@H]3[C@@H]1CC[C@@H]2O [Estramustine],0,0,0,0,0,0,0,0,0,0,0,0,0,0,0,> 990 µM,> 990 µM,> 990 µM,> 990 µM,> 990 µM,> 990 µM,> 990 µM,> 990 µM,> 990 µM,> 990 µM,> 990 µM,> 990 µM,> 990 µM,> 990 µM,> 990 µM
Cc1c(CN2CCN(C(=O)[C@H](C)O)CC2)sc2c(N3CCOCC3)nc(-c3cnc(N)nc3)nc12 [GDC-0980],14.9,14.7,12.1,15.1,9.79,12.4,13.5,18.4,13.5,18.3,15.3,17.4,15.9,16.5,11.8,0.16 µM,0.199 µM,0.39 µM,0.303 µM,0.226 µM,0.212 µM,0.137 µM,0.17 µM,0.178 µM,0.154 µM,0.117 µM,0.123 µM,0.146 µM,0.0865 µM,0.145 µM
C[C@@H]1C=C2C(=O)O[C@@H]3CC[C@H](C1)[C@]23O [Galiellalactone],0,2.52,1.56,0,0,2.32,0,2.65,0,2.19,3.53,6.75,0.391,0,0,> 50 µM,20 µM,30.1 µM,> 50 µM,> 50 µM,13.8 µM,> 50 µM,17.3 µM,> 50 µM,19.1 µM,8.36 µM,7 µM,> 50 µM,> 50 µM,> 50 µM
